According to publication PMC12992715, “Dual interference with host neuropeptide signaling allows parasitoid wasp to hijack host sugar metabolism” (The EMBO Journal, 2025):
No end group written: not given here.

Experiments:
[1] = test system: PxGP mRNA in the fat body; assay: Ex vivo fat body incubation with sNPF and signalling inhibitors, PxGP mRNA; type: cell-based, Plutella xylostella; conditions: 20 µM sNPF + PTX (0.4 µM in legend, 0.1 ng/µl in method), 25 °C, 1 h, n = 6, words
Protocol: (§1) The in vitro incubations of fat body or midgut were performed as previously described with minor modifications (Cheng et al, [2022]). The fat bodies and midguts from non-parasitised middle 4th instar P. xylostella larvae were collected in 0.5 mL of PBS. The collected tissues were then preincubated in culture dishes containing TNM-FH medium (HyClone) for 30 min. sNPF peptides or inhibitors were administered to isolated fat body and midgut in vitro using a modified method from a previous study (Oh et al, [2019]). 1 mM stock solution of pertussis toxin (PTX, Tocris Bioscience) or U73122 (MedChemExpress) was dissolved in DMSO (Sigma-Aldrich) and kept at −80 °C. 0.1 ng/µl PTX or 10 µM U73122 were then mixed with 20 µM sNPF-contained TNM-FH medium. Preincubated tissues were incubated in these mixtures at 25 °C for 1 h, followed by total RNA isolation and qPCR.

P. xylostella larvae [2] = assay: Circulating haemolymph trehalose after injection of synthetic sNPF peptides, venom, CvBV or teratocyte content; type: in vivo, Plutella xylostella; conditions: for effect on haemolymph trehalose level: synthetic PxsNPFs, injected into 3M larvae, measured at 4M, high dosage 0.5 ng per larva, n = 4-6, words
Protocol: (§2) Microinjections were performed under a Stemi 2000C microscope (Zeiss) using glass capillary injection needles and an Eppendorf Femtojet (Eppendorf) with a microcontroller (Narishige). To confirm the function of bovine insulin on hosts, 1 μg bovine insulin (Sigma-Aldrich, I0305000) was injected into the middle 3rd instar P. xylostella larvae. To identify the effect of each parasitic factor on hosts, 0.05 FE CvBV or 0.05 VRE venom was injected into the abdomen of the middle 3rd instar P. xylostella larva (Wang et al, [2018]; Yu et al, [2007]). 1 TE teratocytes’ content was microinjected into the early 4th instar P. xylostella larvae. To confirm the function of each synthetic sNPF peptide, 0.005 ng, 0.05 ng, or 0.5 ng of each peptide was injected into the middle 3rd instar P. xylostella larvae in a volume of 0.1 μl/per larva once per day for 3 consecutive days.
For P. xylostella larvae, 1 μl of haemolymph from the moth was diluted 60-fold in cold PBS and subjected to trehalose determination. The fat body of P. xylostella larvae was homogenised in 200 μl of cold PBS. Half of the homogenate was centrifuged at 13,000 rpm for 15 min, and the supernatant was used for protein content determination by Bradford Reagent (Invitrogen). The rest was heated at 70 °C for 5 min followed by centrifuging at 13,000 rpm for 15 min, and the supernatant was used for glycogen determination.
Trehalose content determination was performed by the anthrone sulfate method. 15 μL of the sample was incubated with 15 μL of 1% H2SO4 at 90 °C for 10 min, then 15 μL of 30% KOH was added and incubated at 90 °C for 10 min. Finally, 300 μl of 0.2% anthrone (Sigma-Aldrich) solution in 96% H2SO4 was added and incubated at 90 °C for 10 min. All reactions were stopped by immersion in ice. To create a trehalose standard curve, 15 μl of trehalose standards (Sigma-Aldrich) were treated similarly as a sample. Finally, 100 μl of each sample was added to a 96-well plate. The absorbance of samples was then measured at 630 nm on a SpectraMax® iD5 Multi-Mode Microplate Reader (Molecular Devices), and the trehalose levels were calculated based on the standard curve and normalised by protein content or sample volume.

P. xylostella larvae [3] = assay: Haemolymph trehalose after bovine insulin; type: in vivo, Plutella xylostella; conditions: 1 μg bovine insulin, words
Protocol: as §2
For P. xylostella larvae, 1 μl of haemolymph from the moth was diluted 60-fold in cold PBS and subjected to trehalose determination. The fat body of P. xylostella larvae was homogenised in 200 μl of cold PBS. […]
Trehalose content determination was performed by the anthrone sulfate method. […] The absorbance of samples was then measured at 630 nm on a SpectraMax® iD5 Multi-Mode Microplate Reader (Molecular Devices), and the trehalose levels were calculated based on the standard curve and normalised by protein content or sample volume.

[4] = test system: PxInR, PxGP, PxHK and PxTPS mRNA; assay: qPCR of PxInR, PxGP, PxHK, PxTPS after bovine insulin; type: in vivo, Plutella xylostella; conditions: for PxInR relative expression, average: Figure 3D; for PxInR relative expression, average / PxGP relative expression, average: normalised to Pxβ-actin and Pxβ-tubulin; for PxGP relative expression, average / PxGP relative expression: Figure 3E
Source text: (§3) To analyse gene expression in different tissues, P. xylostella larvae were dissected under the microscope, followed by the collection of the silk gland, fat body, midgut, haemocytes and central nervous system (CNS, brain and ventral nerve cord). Haemocytes were collected on clean Parafilm membranes with capillaries by bleeding the larvae from a cut proleg. To explore gene expression at different instars of parasitised or non-parasitised larvae, non-parasitised larva was isolated individually using RNA-easy Isolation Reagent (Vazyme). Parasitoid larvae were removed before parasitised hosts were isolated. As for the measurement of other experiments, per larva with different treatments was isolated individually using RNA-easy Isolation Reagent according to the manufacturer’s instructions.
(§4) The quality and concentrations of total RNAs were estimated by electrophoresis and NanoDrop 2000 spectrophotometer (Thermo Fisher Scientific). First-strand cDNAs were synthesised using the ReverTra Ace qPCR RT kit (Toyobo) according to the manufacturer’s instructions. Both β-actin (GenBank Acc. No.: AB282645) and β-tubulin (GenBank Acc. No.: EU127912) of P. xylostella were used as internal controls. Primer sequences used for qPCR analysis are shown in Appendix Table S4. qPCR was performed by using THUNDERBIRD® SYBR qPCR Mix (Toyobo) on the CFX Connect real-time system (Bio-Rad). All qPCR assays were performed using four internal replicates and at least three biological replicates under the following conditions: 95 °C for 60 s and 40 cycles of 95 °C for 15 s and 60 °C for 30 s. Relative gene expression levels were calculated using the 2^−ΔΔCt method.
as §2

[5] = test system: Spodoptera exigua and Antheraea pernyi; conditions: bovine insulin injection, words, ref PMID: 25703302, 34564224; cited from earlier work
Source text: page 9: short summary of the existing data, including for instance, which species this experiment has been conducted in and the data linking bovine insulin to activation of insect insulin-like pathways. […] Response: Thank you for pointing out the need to better justify the use of bovine insulin in our experimental design.

PxHK mRNA in the midgut = assay: Ex vivo midgut incubation with sNPF and signalling inhibitors, PxHK mRNA; type: cell-based, Plutella xylostella; conditions: midgut ex vivo, 20 µM sNPF + 10 µM U73122 (PLCβ inhibitor), 25 °C, 1 h; n = 5; words
Protocol: as §1

[6] = test system: PxGP, PxHK and PxTPS mRNA; assay: qPCR of PxGP, PxHK, PxTPS in larvae injected with synthetic sNPF, venom, CvBV or teratocytes; type: in vivo, Plutella xylostella
Source text: as §3, §4, §2

PxsNPF mRNA = PxsNPF mRNA after injection of venom, CvBV or teratocytes; type: in vivo, Plutella xylostella
Source text: as §3
The quality and concentrations of total RNAs were estimated by electrophoresis and NanoDrop 2000 spectrophotometer (Thermo Fisher Scientific). First-strand cDNAs were synthesised using the ReverTra Ace qPCR RT kit (Toyobo) according to the manufacturer’s instructions. Both β-actin (GenBank Acc. No.: AB282645) and β-tubulin (GenBank Acc. No.: EU127912) of P. xylostella were used as internal controls. […] Relative gene expression levels were calculated using the 2^−ΔΔCt method. […]

[7] = target: Plutella xylostella sNPF receptor (PxsNPFR) (Plutella xylostella)

**Q.** Which “effect on sCvsNPF-stimulated PxGP mRNA” value [1] does the source give for pertussis toxin [PTX] here?
**A.** decreased the sCvsNPF activation of PxGP

**Q.** With “SVRAPSMRLRF-NH2 [sPxsNPF-3, synthetic short neuropeptide F-3 of Plutella xylostella]” as the molecule, how does the “effect on haemolymph trehalose level” value (P. xylostella larvae [2]) read?
**A.** did not have this effect

**Q.** Which results are given for bovine insulin?
**A.** blood trehalose level (P. xylostella larvae [3]; normal (non-parasitised) larvae): reduces the blood trehalose level; haemolymph trehalose level (P. xylostella larvae [3]; parasitised host, 4M, n = 4-5): not reduced by bovine insulin in the parasitised host as in the non-parasitised group; PxGP expression ([4]; 1 μg bovine insulin, parasitised host, 4M, n = 4-5, words): not reduced by bovine insulin in the parasitised host as in the non-parasitised group; PxInR expression ([4]; 1 μg bovine insulin, whole body, 4M, n = 4-5, non-parasitised and parasitised, words): upregulated in both non-parasitised and parasitised hosts; PxInR relative expression, average ([4]; NP, mean of 5 replicates): 3.425; PxInR relative expression, average ([4]; P, mean of 4 replicates): 7.591; PxGP relative expression, average ([4]; NP, mean of 5 replicates): 0.3318; PxGP relative expression ([4]; NP, replicate 1): 0.3933; PxGP relative expression ([4]; NP, replicate 2): 0.2777; PxGP relative expression ([4]; NP, replicate 3): 0.2734; PxGP relative expression ([4]; NP, replicate 4): 0.4168; PxGP relative expression ([4]; NP, replicate 5): 0.298; PxGP relative expression, average ([4]; P, mean of 4 replicates): 3.4733; PxGP relative expression ([4]; P, replicate 1): 3.51; PxGP relative expression ([4]; P, replicate 2): 4.4126; PxGP relative expression ([4]; P, replicate 3): 3.361; PxGP relative expression ([4]; P, replicate 4): 2.609; hemolymph trehalose levels [5]: significant reduction in hemolymph trehalose levels

**Q.** For `COc1ccc2c(c1)CC[C@@H]1[C@@H]2CC[C@]2(C)[C@@H](NCCCCCCN3C(=O)C=CC3=O)CC[C@@H]12` [U73122, reference compound], which “effect on sPxsNPF-1-stimulated PxHK mRNA” value (PxHK mRNA in the midgut) is on record?
**A.** abolished the facilitatory effect of sPxsNPF-1 on PxHK

**Q.** Which results are given for Cotesia vestalis bracovirus [CvBV]?
**A.** increase of circulating trehalose (P. xylostella larvae [2]; 0.05 FE CvBV injected into 3M larvae, at 3L, n = 3-4): 40%; PxGP relative expression, average ([6]; Figure 4B, CvBV injection, qPCR, Pxβ-actin and Pxβ-tubulin reference, relative to PBS (normalizer 6.00), mean of 5 replicates, SD 0.29): 0.87; PxGP relative expression, average ([6]; Figure 4B, PxGP vs PBS, Pxβ-actin/Pxβ-tubulin reference, mean of 5 replicates): 1.73; PxHK relative expression, Average ([6]; Figure 4B, PxHK vs PBS, Pxβ-actin/Pxβ-tubulin reference, mean of 5 replicates): 2.64; PxHK relative expression ([6]; Figure 4B, PxHK vs PBS, Pxβ-actin/Pxβ-tubulin reference, replicate 1): 2.97; PxHK relative expression ([6]; Figure 4B, PxHK vs PBS, Pxβ-actin/Pxβ-tubulin reference, replicate 2): 2.49; PxHK relative expression ([6]; Figure 4B, PxHK vs PBS, Pxβ-actin/Pxβ-tubulin reference, replicate 3): 2.41; PxHK relative expression ([6]; Figure 4B, PxHK vs PBS, Pxβ-actin/Pxβ-tubulin reference, replicate 4): 2.30; PxHK relative expression ([6]; Figure 4B, PxHK vs PBS, Pxβ-actin/Pxβ-tubulin reference, replicate 5): 3.01; transcript level of PxHK ([6]; non-parasitised larvae (whole body), CvBV, 3L, n = 5, words): increases the transcript level of PxHK; PxsNPF expression (PxsNPF mRNA; 24 h after injection, n = 3-6, words): an increase in PxsNPF expression 24 h after CvBV injection; PxsNPF relative expression, Average (PxsNPF mRNA; Figure 5K, 3M, average of replicates, vs PBS): 1.99

**Q.** Which “effect on haemolymph trehalose level” value (P. xylostella larvae [2]) does the source give for “DTRQPVRLRF-NH2 [sPxsNPF-2, synthetic short neuropeptide F-2 of Plutella xylostella]” here?
**A.** did not have this effect

**Q.** With SQRSPSLRLRF-NH2 [synthetic CvsNPF (Cotesia vestalis short neuropeptide F)] as the molecule, how does the inhibition of forskolin-stimulated cAMP accumulation in PxsNPFR-expressing HEK293 cells (10 μM forskolin, various peptide concentrations, 15 min; cAMP-Glo), EC50 [7] read?
**A.** 0.402 µM
